# Earlier results in US8648203B2 (priority 2005, dated 2014).
# Experiments:
# [1] = test system: potato Phycophthora infestans; conditions: field tests
# mites = conditions: repeated treatments in the field
smiles,measurement,setting,value
"O=[N+]([O-])c1cc(C(F)(F)F)c(Cl)c([N+](=O)[O-])c1Nc1ncc(C(F)(F)F)cc1Cl [fluazinam, 3-chloro-N-(3-chloro-5-trifluoromethyl-2-pyridyl)-α,α,α-trifluoro-2,6-dinitro-p-toluidine]",activity against potato Phycophthora infestans,[1],excellent activity
same,population of mites,mites,significantly reduce the population of mites
